Measured values as given in patent US8293873B2, “Combination of amino acid solution and a gelatin derivative for inhibiting renal up-take” (BioSynthema Inc., priority 2006, dated 2012).

System: kidney uptake of [177Lu-DOTA0,Tyr3]octreotate
Assay: Kidney uptake of [177Lu-DOTA0,Tyr3]octreotate measured by NanoSPECT in rats
Assay type: in vivo, Male Lewis rats
Protocol: For reduction of kidney rats were injected with 20 mg Gelofusine, 100 mg lysine or the combination. Kidney uptake was measured by SPECT scans with a […] multi-pinhole camera (NanoSPECT, Bioscan) at 24 h, 5 and 7 days pi. Kidney uptake was quantified by VOI analysis.

NCCCC[C@H](N)C(=O)O [lysine]
inhibition of kidney uptake of [177Lu-DOTA0,Tyr3]octreotate (24 h pi, 555 MBq, 20 mg Gelofusine, 100 mg lysine or the combination, SPECT VOI analysis): 37%±6% | reduction of kidney uptake with an overdose of lysine alone (rats, overdose of lysine alone): did not improve the reduction of the kidney uptake
